In ChEMBL document CHEMBL1131965, “Isoquinoline-6-carboxamides as potent and selective anti-human cytomegalovirus (HCMV) inhibitors” (Bioorg Med Chem Lett, 1999):
Converted amounts (≈) assume the structure as drawn.

Tests used:
Hs68 [1] = experiment: Cytotoxicity in Hs 68 cell line by inhibition of cell proliferation; type: functional; conditions: Homo sapiens
Hs68 [2] = experiment: Anti-HCMV activity in Hs 68 cell line by plaque reduction assay; type: functional, cell-based; conditions: Homo sapiens

Compound COc1ccccc1CNC(=O)c1ccc2ccccc2n1 has a CC50 (Hs68 [1]) of 10 µg/mL (≈ 34.2 µM) and an IC50 (Hs68 [2]) of over 25 µg/mL.
Compound O=C(O)c1cc2ccncc2cn1 has an IC50 (Hs68 [2]) of 0.5 µg/mL (≈ 2.87 µM).
